From the NIST ThermoML archive (doi:10.1016/j.jct.2004.08.004)
Values joined by “and” are separate entries in the source; they are usually repeats but may differ in a detail not shown here. Identical values can stand only once.

Conditions: Liquid, Transpiration method

CCCCCCCCCC#N [1-decanenitrile]
Conditions | vapor or sublimation pressure [kPa]
295.2 K | 0.00359
298.3 K | 0.00484
302.2 K | 0.00692
305.6 K | 0.00928
308.7 K | 0.01188
311.7 K | 0.01511
313.1 K | 0.01667
315.2 K | 0.01966
316.2 K | 0.02172
319.2 K | 0.02728
322.2 K | 0.03317
326.3 K | 0.04574

CCCCCCCCCCC#N [1-decylcyanide]
Conditions | vapor or sublimation pressure [kPa]
290.3 K | 0.00062
298.2 K | 0.00131
305.2 K | 0.00255
307.2 K | 0.00308
309.2 K | 0.00374
310.2 K | 0.00402
313.2 K | 0.0051
314.2 K | 0.00577
319.1 K | 0.00834
319.2 K | 0.00877
322.1 K | 0.01069
322.2 K | 0.0113
325.2 K | 0.0144
325.3 K | 0.01379
327.2 K | 0.01646
328.2 K | 0.01792
331.3 K | 0.02254
332.2 K | 0.02447
334.2 K | 0.02763
337.2 K | 0.03454
337.3 K | 0.03505
340.3 K | 0.04264

CCCCCCCCCCCCCCC#N [1-tetradecyl cyanide]
Conditions | vapor or sublimation pressure [kPa]
336.2 K | 0.00105
339.2 K | 0.00137
342.1 K | 0.00176
345.2 K | 0.00219
348.1 K | 0.00287
351.2 K | 0.00356
354.2 K | 0.00459
357.2 K | 0.00567
360.2 K | 0.00704
363.2 K | 0.00901
366.2 K | 0.01122
369.1 K | 0.0138
372.1 K | 0.017

CCCCCCCCCCCCC#N [dodecanecarbonitrile]
Conditions | vapor or sublimation pressure [kPa]
301.2 K | 0.00024
313.3 K | 0.00075
318.1 K | 0.0012
324.1 K | 0.00205
327.2 K | 0.0028
330.2 K | 0.00364
333.1 K | 0.00466
336.2 K | 0.00594
339.2 K | 0.00754
342.1 K | 0.0095
345.2 K | 0.01168
348.2 K | 0.01466
351.2 K | 0.01796
354.2 K | 0.02244
357.2 K | 0.02764
360.2 K | 0.03471
363.2 K | 0.04232

CCCCCCCCCCCCCCCCC#N [heptadecanenitrile]
Conditions | vapor or sublimation pressure [kPa]
348.2 K | 0.00055
351.2 K | 0.00072
354.2 K | 0.00093
357.2 K | 0.00117
360.2 K | 0.00156
363.2 K | 0.00201
366.2 K | 0.00252
369.1 K | 0.00316
372.1 K | 0.00402
376.2 K | 0.00532
379.2 K | 0.00678
382.2 K | 0.00824
385.2 K | 0.01022

CCCCCCC#N [heptanenitrile]
Conditions | vapor or sublimation pressure [kPa]
280.2 K | 0.02893
283.2 K | 0.03746
286.2 K | 0.04773
289.2 K | 0.05977
292.2 K | 0.07501
295.2 K | 0.09393
298.2 K | 0.1138
301.2 K | 0.1417
304.2 K | 0.1723
307.2 K | 0.2092

CCCCCCCCCCCCCCCC#N [hexadecanenitrile]
Conditions | vapor or sublimation pressure [kPa]
345.1 K | 0.00096
348.1 K | 0.00128
351.2 K | 0.00165
354.2 K | 0.00212
357.2 K | 0.00262
360.2 K | 0.00342
363.2 K | 0.00434
366.2 K | 0.00532
369.2 K | 0.00658
372.1 K | 0.00826
376.2 K | 0.0112
379.2 K | 0.0136
382.2 K | 0.01642

CCCCCCCCCCCC#N [n-dodecanenitrile]
Conditions | vapor or sublimation pressure [kPa]
298.2 K | 0.00052
301.2 K | 0.00071
306.1 K | 0.00111
312.2 K | 0.00186
315.1 K | 0.00239
318.2 K | 0.00323
319.2 K | 0.0036
322.2 K | 0.00462
325.2 K | 0.0059
328.2 K | 0.00742
331.2 K | 0.00936
334.2 K | 0.0117
337.2 K | 0.01464
340.2 K | 0.01821
343.2 K | 0.02303
346.2 K | 0.02783
349.2 K | 0.03419
352.3 K | 0.04237
355.3 K | 0.05317
358.2 K | 0.06363
361.2 K | 0.07929
364.2 K | 0.09431
367.1 K | 0.1148

CCCCCCCCC#N [nonanenitrile]
Conditions | vapor or sublimation pressure
285.2 K | 0.0039 kPa
286.2 K | 0.00449 kPa
288.2 K | 0.00519 kPa
290.2 K | 0.0064 kPa
291.7 K | 0.00714 kPa
293.2 K | 0.00797 kPa
295.2 K | 0.00992 kPa
296.2 K | 0.01052 kPa
298.2 K | 0.0124 kPa
299.2 K | 0.0135 kPa
301.2 K | 0.01585 kPa
302.2 K | 0.01722 kPa
304.2 K | 0.0198 kPa
305.2 K | 0.02231 kPa
307.2 K | 0.02482 kPa
308.2 K | 0.02855 kPa
310.2 K | 0.03154 kPa
311.2 K | 0.03619 kPa
313.2 K | 0.04037 kPa
316.2 K | 0.05039 kPa and 0.05346 kPa
319.2 K | 0.06245 kPa
320.2 K | 0.06797 kPa
323.2 K | 0.08366 kPa

CCCCCCCC#N [octanenitrile]
Conditions | vapor or sublimation pressure
283.2 K | 0.01192 kPa
286.2 K | 0.0152 kPa
289.2 K | 0.01964 kPa
292.2 K | 0.02498 kPa
295.2 K | 0.03092 kPa
298.2 K | 0.03898 kPa
301.2 K | 0.04949 kPa and 0.04849 kPa
304.2 K | 0.06148 kPa
307.1 K | 0.07561 kPa
310.2 K | 0.09243 kPa and 0.09473 kPa

CCCCCCCCCCCCCC#N [tetradecanenitrile]
Conditions | vapor or sublimation pressure [kPa]
327.2 K | 0.00109
330.2 K | 0.00139
333.2 K | 0.00183
336.2 K | 0.00236
339.2 K | 0.00306
342.1 K | 0.00383
345.2 K | 0.00491
348.1 K | 0.00628
351.2 K | 0.00777
354.2 K | 0.00982
357.2 K | 0.01221
360.2 K | 0.01474
363.2 K | 0.01847
366.2 K | 0.02305
369.2 K | 0.02799
